# Laboratory results taken from patent US4450269A, “Mono-5-substituted-3-chloro-4H-1,2,6-thiadiazin-4-one antifungal agents” (FMC Corporation, priority 1980, dated 1984).
# Structures can show the parent of a compound that is named as a salt.
# Legend:
# Format in all cases: cell-based
# [1] = test system: Cladosporium cucumerinum; experiment: Spore germination test; conditions: CC, 48 hours
# Procedure, shortened: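 Compound in acetone mixed into water agar at 40, 10, 2.5 and 1 ppm; plates seeded with spore suspension and incubated 48 hours at 24 °C. Percentage germinated spores counted and converted into a germination rating.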
# [2] = test system: Botrytis cinerea; experiment: Spore germination test; conditions: BC, 48 hours
# Procedure, shortened: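 Compound in acetone was mixed into water agar at final 40, 10, 2.5 and 1 ppm and poured into quadrant dishes. Quadrants received spore suspension, while Erysiphe polygoni and Uromyces phaseoli spores were brushed on from infected leaves. After 48 h at 24 °C, the percentage of germinated spores was converted to a germination rating.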
# [3] = test system: Pythium ultimum; experiment: Mycelial growth test; conditions: PU; for Percent Fungus Growth Inhibition: 72 hours; for inhibition at 5 ppm / inhibition at 10 ppm / inhibition at 20 ppm / inhibition at 40 ppm: Globisporangium ultimum, 72 h, read-out: Percent Fungus Growth Inhibition
Compound,Spore Germination Rating ([1]; 1.0 ppm),Spore Germination Rating ([1]; 2.5 ppm),Spore Germination Rating ([1]; 10 ppm),Spore Germination Rating ([1]; 40 ppm),Spore Germination Rating ([2]; 1.0 ppm),Spore Germination Rating ([2]; 2.5 ppm),Spore Germination Rating ([2]; 10 ppm),Spore Germination Rating ([2]; 40 ppm),Percent Fungus Growth Inhibition ([3]; 5 ppm),Percent Fungus Growth Inhibition ([3]; 10 ppm),Percent Fungus Growth Inhibition ([3]; 20 ppm),Percent Fungus Growth Inhibition ([3]; 40 ppm),inhibition at 5 ppm ([3]; 5 ppm),inhibition at 10 ppm ([3]; 10 ppm),inhibition at 20 ppm ([3]; 20 ppm),inhibition at 40 ppm ([3]; 40 ppm),"Spore Germination Rating ([2]; 1.0 ppm, hydrochloride)","Percent Fungus Growth Inhibition ([3]; 20 ppm, hydrochloride)","Percent Fungus Growth Inhibition ([3]; 40 ppm, hydrochloride)"
"3-chloro-5-(bromophenoxy)-4H-1,2,6-thiadiazin-4-one [Compound 33]",0 (0-10),0 (0-10),0 (0-10),0 (0-10),4 (80-100),3 (60-80),0 (0-10),0 (0-10),69%,87%,96%,100%,–,–,–,–,–,–,–
"O=c1c(Cl)nsnc1Oc1ccccc1 [Compound 2, 3-chloro-5-phenoxy-4H--1,2,6-thiadiazin-4-one]",4 (80-100),4 (80-100),0 (0-10),0 (0-10),4 (80-100),4 (80-100),0 (0-10),0 (0-10),–,–,–,–,0%,42%,100%,100%,–,–,–
"Cc1ccc(Oc2nsnc(Cl)c2=O)cc1 [Compound 3, 3-chloro-5-(4-methylphenoxy)-4H--1,2,6-thiadiazin-4-one]",4 (80-100),4 (80-100),0 (0-10),0 (0-10),4 (80-100),4 (80-100),0 (0-10),0 (0-10),–,–,–,–,20%,100%,100%,100%,–,–,–
"CC(C)(C)c1ccc(Oc2nsnc(Cl)c2=O)cc1 [Compound 4, 3-chloro-5-(4-tert-butylphnoxy)-4H--1,2,6-thiadiazin-4-one]",4 (80-100),4 (80-100),0 (0-10),0 (0-10),4 (80-100),4 (80-100),4 (80-100),2 (40-60),–,–,–,–,0%,20%,0%,0%,–,–,–
"COc1ccc(Oc2nsnc(Cl)c2=O)cc1 [Compound 5, 3-chloro-5-(4-methoxyphenoxy)4H--1,2,6-thiadiazin-4-one]",4 (80-100),4 (80-100),0 (0-10),0 (0-10),4 (80-100),4 (80-100),1 (10-40),0 (0-10),–,–,–,–,0%,42%,76%,100%,–,–,–
"CCCCOc1ccc(Oc2nsnc(Cl)c2=O)cc1 [Compound 6, 3-chloro-5-(4-n-butoxyphenoxy)-4H--1,2,6-thiadiazin-4-one]",0 (0-10),0 (0-10),0 (0-10),0 (0-10),4 (80-100),4 (80-100),4 (80-100),4 (80-100),–,–,–,–,0%,0%,0%,22%,–,–,–
"CCOC(=O)c1ccc(Oc2nsnc(Cl)c2=O)cc1 [Compound 7, 3-chloro-5-(4-ethoxycarbonylphenoxy)-4H--1,2,6-thiadiazin-4-one]",0 (0-10),0 (0-10),0 (0-10),1 (10-40),4 (80-100),3 (60-80),2 (40-60),3 (60-80),–,–,–,–,11%,29%,80%,100%,–,–,–
"CC(=O)Nc1ccc(Oc2nsnc(Cl)c2=O)cc1 [Compound 8, 5-(4-acetylaminophenoxy)-3-chloro-4H--1,2,6-thiadiazin-4-one]",4 (80-100),3 (60-80),0 (0-10),0 (0-10),4 (80-100),4 (80-100),4 (80-100),4 (80-100),–,–,–,–,0%,100%,100%,100%,–,–,–
"O=c1c(Cl)nsnc1Oc1ccc([N+](=O)[O-])cc1 [Compound 9, 3-chloro-5-(4-nitrophenoxy)-4H--1,2,6-thiadiazin-4-one]",0 (0-10),0 (0-10),0 (0-10),0 (0-10),0 (0-10),0 (0-10),0 (0-10),0 (0-10),–,–,–,–,0%,80%,71%,100%,–,–,–
"N#Cc1ccc(Oc2nsnc(Cl)c2=O)cc1 [Compound 10, 3-chloro-5-(4-cyanophenoxy)-4H--1,2,6-thiadiazin-4-one]",0 (0-10),0 (0-10),0 (0-10),0 (0-10),2 (40-60),0 (0-10),0 (0-10),0 (0-10),–,–,–,–,11%,24%,42%,64%,–,–,–
"O=c1c(Cl)nsnc1Oc1ccc(F)cc1 [Compound 11, 3-chloro-5-(4-fluorophenoxy)-4H--1,2,6-thiadiazin-4-one]",0 (0-10),0 (0-10),0 (0-10),0 (0-10),4 (80-100),1 (10-40),0 (0-10),0 (0-10),–,–,–,–,0%,18%,82%,100%,–,–,–
"O=c1c(Cl)nsnc1Oc1ccc(Cl)cc1 [Compound 12, 3-chloro-5-(4-chlorophenoxy)-4H--1,2,6-thiadiazin-4-one]",2 (40-60),0 (0-10),0 (0-10),0 (0-10),0 (0-10),2 (40-60),0 (0-10),0 (0-10),–,–,–,–,42%,100%,100%,100%,–,–,–
"O=c1c(Cl)nsnc1Oc1cccc(Cl)c1 [Compound 13, 3-chloro-5-(3-chlorophenoxy)-4H--1,2,6-thiadiazin-4-one]",2 (40-60),0 (0-10),0 (0-10),0 (0-10),4 (80-100),4 (80-100),0 (0-10),0 (0-10),–,–,–,–,31%,73%,89%,100%,–,–,–
"O=c1c(Cl)nsnc1Oc1ccccc1Cl [Compound 14, 3-chloro-5-(2-chlorophenoxy)-4H--1,2,6-thiadiazin-4-one]",4 (80-100),0 (0-10),0 (0-10),0 (0-10),3 (60-80),0 (0-10),0 (0-10),0 (0-10),–,–,–,–,31%,53%,100%,100%,–,–,–
"O=c1c(Cl)nsnc1Oc1ccc(Br)cc1 [Compound 15, 3-chloro-5-(4-bromophenoxy)-4H--1,2,6-thiadiazin-4-one]",0 (0-10),0 (0-10),0 (0-10),0 (0-10),4 (80-100),1 (10-40),0 (0-10),0 (0-10),–,–,–,–,47%,76%,80%,76%,–,–,–
"O=c1c(Cl)nsnc1Oc1ccc(Cl)c(Cl)c1 [Compound 16, 3-chloro-5-(3,4-dichlorophenoxy)-4H--1,2,6-thiadiazin-4-one]",0 (0-10),0 (0-10),0 (0-10),0 (0-10),4 (80-100),1 (10-40),0 (0-10),1 (10-40),–,–,–,–,7%,11%,47%,56%,–,–,–
"O=c1c(Cl)nsnc1Oc1ccc(Cl)cc1Cl [Compound 17, 3-chloro-5-(2,4-dichlorophenoxy)-4H--1,2,6-thiadiazin-4-one]",4 (80-100),0 (0-10),0 (0-10),0 (0-10),4 (80-100),0 (0-10),0 (0-10),0 (0-10),–,–,–,–,42%,80%,100%,100%,–,–,–
"O=c1c(Cl)nsnc1Oc1c(Cl)cccc1Cl [Compound 18, 3-chloro-5-(2,6-dichlorophenoxy)-4H--1,2,6-thiadiazin-4-one]",4 (80-100),0 (0-10),0 (0-10),0 (0-10),4 (80-100),1 (10-40),0 (0-10),0 (0-10),–,–,–,–,13%,60%,100%,100%,–,–,–
"Nc1ccc(Oc2nsnc(Cl)c2=O)cc1 [Compound 27, 5-(4-aminophenoxy)-3-chloro-4H--1,2,6-thiadiazine-4-one hydrochloride]",–,–,–,–,–,–,–,–,–,–,–,–,–,–,–,–,1 (10-40),0%,80%
